{"source": "patent US10206893B2", "about": "“Immunoregulatory agents” (Flexus Biosciences, Inc., priority 2014, dated 2019)"}
{"biological_target": "T1, human IDO1 (Homo sapiens, UniProt P14902)", "T1 construct": "expressed in transfected cells", "T1 sequence (P14902 whole entry)": "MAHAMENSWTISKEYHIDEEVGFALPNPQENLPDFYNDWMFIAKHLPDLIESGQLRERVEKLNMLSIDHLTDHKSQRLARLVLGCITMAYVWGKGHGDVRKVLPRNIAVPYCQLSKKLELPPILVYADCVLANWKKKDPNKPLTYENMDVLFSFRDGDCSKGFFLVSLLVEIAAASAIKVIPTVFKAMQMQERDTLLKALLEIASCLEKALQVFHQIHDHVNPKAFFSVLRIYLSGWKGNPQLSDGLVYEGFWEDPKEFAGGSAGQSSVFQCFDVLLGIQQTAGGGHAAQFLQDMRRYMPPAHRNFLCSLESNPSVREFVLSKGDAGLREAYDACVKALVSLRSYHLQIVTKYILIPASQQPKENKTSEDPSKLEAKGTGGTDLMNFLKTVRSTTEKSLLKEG", "assay": "IDO inhibition assay in HEK293 cells stably expressing human IDO1 (kynurenine, Ehrlich reagent)", "assay_type": "cell-based", "details": "20 hours incubation, read-out: HEK Human IDO-1 Bio Activity", "experimental": "They were cultured in medium (DMEM with 10% FBS) containing 1 mg/ml G418 for two weeks.\nThe human IDO1/HEK293 cells were seeded at 10,000 cells per 50 μL per well with RPMI/phenol red free media contains 10% FBS in a 384-well black wall clear bottom tissue culture plate (Matrix Technologies LLC) 100 nL of certain concentration of compound was then added to each well using ECHO liquid handling systems. The cells were incubated for 20 hours in 37° C. incubator with 5% CO2.\nThe compound treatments were stopped by adding trichloroacetic acid (Sigma-Aldrich) to a final concentration at 0.2%. The cell plate was further incubated at 50° C. for 30 minute. The equal volume supernatant (20 μL) and 0.2% (w/v) Ehrlich reagent (4-dimethylaminobenzaldehyde, Sigma-Aldrich) in glacial acetic acid were mixed in a new clear bottom 384-well plate. This plate was then incubated at room temperature for 30 minute. The absorbance at 490 nm was measured on Envision plate reader.", "units": {"IC50": "nM"}}
{"compound": "CC[C@@H](NC(=O)c1ccc(-c2ccccc2)cc1)[C@H]1CC[C@H](c2cnc3ccccc3c2)CC1", "note": "[Example 201, N—((R)-1-((1r,4R)-4-(quinolin-3-yl)cyclohexyl)propyl)-[1,1′-biphenyl]-4-carboxamide]", "IC50": "< 250"}
{"compound": "CC[C@H](NC(=O)c1ccc(-c2ccccc2)cc1)[C@H]1CC[C@H](c2cnc3ccccc3c2)CC1", "note": "[Example 202, N—((S)-1-((1r,4S)-4-(quinolin-3-yl)cyclohexyl)propyl)-[1,1′-biphenyl]-4-carboxamide]", "IC50": "< 50"}
{"compound": "COc1ccc(-c2ccc(C(=O)N[C@H](C)[C@H]3CC[C@@H](c4ccnc5ccc(F)cc54)CC3)cc2)nc1", "note": "[Example 239, N-((R)-1-((1s,4S)-4-(6-fluoroquinolin-4-yl)cyclohexyl)ethyl)-4-(5-methoxypyridin-2-yl)benzamide]", "IC50": "< 50"}
{"compound": "(R)-1-(cis-4-(6-fluoroquinolin-4- yl)cyclohexyl)-N-methylethanamine [Example 194]", "IC50": "< 50"}
